# From PubChem BioAssay (NCI)
#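 In this assay, cells in 96-well plates receive the compound at five concentrations for 48 hours. Endpoints are linearly interpolated between the surrounding concentrations. Abbreviation: GI50, concentration required for 50% inhibition of growth. At the TGI there is no net growth.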
# Assays:
# Assay in all cases: inhibition of tumour cell growth, NCI panel, 48 h
# DU-145 prostate = system: DU-145 prostate
# HCC-2998 colon = system: HCC-2998 colon
# HL-60(TB) leukemia = system: HL-60(TB) leukemia
# HT29 colon = system: HT29 colon
# NCI-H460 lung = system: NCI-H460 lung
# NCI-H522 lung = system: NCI-H522 lung
# OVCAR-5 ovarian = system: OVCAR-5 ovarian
# SF-268 CNS = system: SF-268 CNS
# SK-MEL-28 melanoma = system: SK-MEL-28 melanoma
# UACC-62 melanoma = system: UACC-62 melanoma
SMILES,GI50 (DU-145 prostate),TGI (DU-145 prostate),GI50 (HCC-2998 colon),TGI (HCC-2998 colon),GI50 (HL-60(TB) leukemia),TGI (HL-60(TB) leukemia),GI50 (HT29 colon),TGI (HT29 colon),GI50 (NCI-H460 lung),TGI (NCI-H460 lung),GI50 (NCI-H522 lung),TGI (NCI-H522 lung),GI50 (OVCAR-5 ovarian),TGI (OVCAR-5 ovarian),GI50 (SF-268 CNS),TGI (SF-268 CNS),GI50 (SK-MEL-28 melanoma),TGI (SK-MEL-28 melanoma),GI50 (UACC-62 melanoma),TGI (UACC-62 melanoma)
C#C[C@]1(O)CCC2C3CCc4cc(O)ccc4C3CC[C@@]21C (some centres undefined),6.71 µM,23.5 µM,9.88 µM,63.5 µM,3.45 µM,24.2 µM,3.65 µM,18.6 µM,4.02 µM,17.8 µM,3.47 µM,20.5 µM,17.3 µM,> 100 µM,5.23 µM,32.7 µM,5.85 µM,19.7 µM,4.12 µM,22.8 µM
COc1cc2c3c(n(C)c(=O)c2cc1OC)-c1cc2c(cc1/C3=C\CN)OCO2,0.346 µM,37.1 µM,0.0628 µM,0.589 µM,0.294 µM,> 100 µM,0.192 µM,24.8 µM,0.0879 µM,> 24.1 µM,0.835 µM,> 43.5 µM,2.16 µM,> 35.7 µM,0.433 µM,> 79.2 µM,7.38 µM,> 48.5 µM,0.0731 µM,
COc1c(OC[C@H](O)CN2CCOCC2)ccc2c3n(c(=NC(=O)c4cccnc4C)nc12)CCN3,6.72 µM,> 50 µM,1.9 µM,> 50 µM,0.0538 µM,> 50 µM,0.217 µM,> 50 µM,0.528 µM,> 50 µM,> 50 µM,> 50 µM,0.171 µM,> 50 µM,12.4 µM,> 50 µM,0.465 µM,> 50 µM,0.33 µM,> 50 µM
CCOC(=O)Nc1ccc(C)c(NC(=O)OCC)c1,,> 100 µM,,> 100 µM,,> 100 µM,,> 100 µM,,> 100 µM,,> 100 µM,,> 100 µM,,> 100 µM,,> 100 µM,,> 100 µM
O=C(N[C@@H](c1ccc(Cl)c(Cl)c1)C1CNC1)c1ccc2cnccc2c1,0.644 µM,13.2 µM,0.246 µM,3.51 µM,0.534 µM,3.89 µM,0.206 µM,12.1 µM,0.214 µM,11 µM,0.721 µM,9.2 µM,0.34 µM,14.2 µM,0.924 µM,3.16 µM,0.301 µM,3.43 µM,0.171 µM,0.866 µM
CC(C)Oc1ccc2cc(-c3nn(CC4CCNCC4)c4ncnc(N)c34)ccc2c1,14.9 µM,28.4 µM,9.53 µM,24.6 µM,6.45 µM,20.6 µM,2.78 µM,12.2 µM,14.9 µM,28.5 µM,11 µM,25.4 µM,11.9 µM,24.1 µM,8.8 µM,23.5 µM,2.14 µM,5.3 µM,6.41 µM,20.4 µM
CC[C@H]1[C@@H]2C=C[C@@H]3[C@H]4C/C=C\C(=O)NCCC[C@@H]5NC(=O)/C(=C(O)/C=C/[C@@H]4C[C@@H]3[C@H]2C[C@H]1C)C5=O,0.715 µM,1.94 µM,1.8 µM,3.62 µM,1.92 µM,3.99 µM,1.73 µM,3.31 µM,0.409 µM,1.84 µM,6.7 µM,15.7 µM,1.66 µM,3.5 µM,0.448 µM,1.86 µM,1.89 µM,4.06 µM,1.66 µM,3.17 µM
O=C1OCC2=C1C(c1cccc(Br)c1)c1cc3c(cc1N2CCO)CCC3 (centres undefined),0.137 µM,0.466 µM,0.13 µM,1.66 µM,0.0763 µM,0.444 µM,0.109 µM,1.3 µM,0.101 µM,5.19 µM,0.0148 µM,0.521 µM,0.322 µM,10 µM,0.109 µM,6.47 µM,0.0564 µM,10.3 µM,0.0223 µM,8.18 µM
Cn1cc(C2=C(c3cn(CCCCO)c4ccccc34)C(=O)NC2=O)c2ccccc21,10 µM,> 25 µM,16.3 µM,> 25 µM,6.71 µM,16.3 µM,8.3 µM,> 25 µM,8.41 µM,> 25 µM,10.4 µM,> 25 µM,13.5 µM,> 25 µM,8.63 µM,> 25 µM,12.6 µM,> 25 µM,9.07 µM,> 24.1 µM
CN(C)CC[PH+](c1ccccc1)c1ccccc1.CN(C)CC[PH+](c1ccccc1)c1ccccc1.[Cl-].[Pd+2],> 100 µM,> 100 µM,> 100 µM,> 100 µM,> 100 µM,> 100 µM,> 100 µM,> 100 µM,> 100 µM,> 100 µM,73.6 µM,> 100 µM,> 100 µM,> 100 µM,> 100 µM,> 100 µM,> 100 µM,> 100 µM,> 100 µM,> 100 µM
CCOC(=O)Nc1ccc(-c2nc(-c3cccc(OCCN4CCOCC4)c3)c(-c3ccnc(Br)c3)[nH]2)cc1,4.05 µM,> 100 µM,2.28 µM,6.11 µM,2.15 µM,5.39 µM,2.9 µM,> 100 µM,3.32 µM,> 100 µM,3.31 µM,> 100 µM,5.11 µM,> 100 µM,4.55 µM,> 100 µM,1.78 µM,3.75 µM,2.26 µM,7.14 µM
CS(=O)(=O)CCNCc1nc(-c2ccc3ncnc(Nc4ccc(OCc5cccc(C(F)(F)F)c5)cc4)c3c2)cs1,> 17.7 µM,> 25 µM,> 25 µM,> 25 µM,> 25 µM,> 25 µM,> 17.6 µM,> 25 µM,> 25 µM,> 25 µM,9.13 µM,> 25 µM,> 25 µM,> 25 µM,12.8 µM,> 25 µM,> 20.6 µM,> 25 µM,> 25 µM,> 25 µM
COc1ccc(/C=C2/N=C(c3ccccc3)N(c3c(C)n(C)n(-c4ccccc4)c3=O)C2=O)cc1OC,> 100 µM,> 100 µM,> 100 µM,> 100 µM,> 100 µM,> 100 µM,> 100 µM,> 100 µM,> 100 µM,> 100 µM,> 100 µM,> 100 µM,> 100 µM,> 100 µM,> 100 µM,> 100 µM,> 100 µM,> 100 µM,> 100 µM,> 100 µM
COc1cc2c(cc1OCCCNC(=O)c1cccc3c(=O)c4ccccc4[nH]c13)N=C[C@@H]1CCCN1C2=O,< 0.01 µM,13.5 µM,< 0.0103 µM,0.0321 µM,,> 77 µM,,> 56.3 µM,,3.76 µM,,> 33.6 µM,< 0.01 µM,30.6 µM,< 0.0216 µM,2.07 µM,< 0.01 µM,2.89 µM,< 0.01 µM,< 0.01 µM
Cn1cc(-c2csc(-c3c[nH]c4ccc(F)cc34)n2)c2cnccc21,1.8 µM,3.28 µM,1.95 µM,3.66 µM,2.19 µM,4.32 µM,1.69 µM,3.29 µM,1.99 µM,3.95 µM,1.79 µM,3.29 µM,1.91 µM,3.36 µM,1.94 µM,3.58 µM,1.86 µM,3.29 µM,1.83 µM,3.39 µM
CN(C)C(n1cc2c(c1)-c1ccc(Cl)cc1C(c1ccccc1F)=NC2)n1cc2c(c1)-c1ccc(Cl)cc1C(c1ccccc1F)=NC2,,> 100 µM,,> 100 µM,,> 100 µM,,> 100 µM,,> 100 µM,,> 100 µM,,> 100 µM,,> 100 µM,,> 100 µM,,> 100 µM
Cc1ncc(C(=O)Nc2ccc(CN3CCN(C)CC3)c(C(F)(F)F)c2)cc1C#Cc1cnc(N)c2ccncc12,1.1 µM,3.27 µM,1.86 µM,3.39 µM,0.79 µM,4.06 µM,0.432 µM,2.26 µM,1.38 µM,3.02 µM,1.14 µM,2.5 µM,1.45 µM,4.53 µM,0.702 µM,2.99 µM,1.27 µM,2.82 µM,1.4 µM,2.9 µM
CN1C(=O)N(C)C2C1NN=c1s/c(=C\c3ccc(Cl)cc3Cl)c(=O)n12 (centres undefined),0.334 µM,> 20.5 µM,0.281 µM,15.5 µM,0.264 µM,,0.117 µM,> 100 µM,0.199 µM,> 94.3 µM,0.0958 µM,> 57.8 µM,0.601 µM,> 100 µM,1.66 µM,> 100 µM,4.26 µM,> 94.6 µM,0.0709 µM,> 65.2 µM
COc1cccc2c1C(=O)c1c(O)c3c(c(O)c1C2=O)C[C@](O)(C(=O)CO)C[C@H]3O[C@@H]1C[C@@H](NC(=O)CCCCCN(C)C2(c3ccc(F)cc3)CC3CCC2C3)[C@H](O)[C@@H](C)O1 (some centres undefined),1.13 µM,4.24 µM,1.03 µM,3.37 µM,6.59 µM,16.1 µM,0.676 µM,1.5 µM,0.555 µM,1.37 µM,0.707 µM,1.57 µM,0.988 µM,2.19 µM,5.38 µM,14.9 µM,7.25 µM,15.7 µM,6.56 µM,15.7 µM
O=C1C=CC(=O)c2cc3cc(CBr)ccc3cc21,2.35 µM,6.54 µM,6.16 µM,19.2 µM,,0.2 µM,2.62 µM,> 100 µM,22 µM,> 80.3 µM,4.33 µM,> 25.8 µM,9.96 µM,33.6 µM,9.4 µM,> 73.9 µM,7.31 µM,> 63.1 µM,5.61 µM,15.6 µM
CC(=O)OC12C=CC(=O)N1c1ccccc1C(=O)O2 (centres undefined),> 100 µM,> 100 µM,,> 100 µM,,> 100 µM,,> 100 µM,,> 100 µM,,> 100 µM,,> 100 µM,,> 100 µM,,> 100 µM,,> 100 µM
